Reference: ChEMBL document CHEMBL5325502, “Discovery of 2,4-diphenyl-substituted thiazole derivatives as PRMT1 inhibitors and investigation of their anti-cervical cancer effects” (Bioorg Med Chem, 2023)
The source made the active and inactive calls. No cut-off for these calls is given here.

Columns and labels:
[1] = target: T1, Protein arginine N-methyltransferase 1 (Homo sapiens, UniProt Q99873); experiment: Displacement of [3H]SAM from PRMT1 (unknown origin) at 10 uM preincubated for 15 mins followed by [3H]SAM addition measured after 60 mins by radiometric/luminescence based assay relative to control; conditions: time 75.0 min
Target sequence in this assay (Q99873 whole entry, looked up): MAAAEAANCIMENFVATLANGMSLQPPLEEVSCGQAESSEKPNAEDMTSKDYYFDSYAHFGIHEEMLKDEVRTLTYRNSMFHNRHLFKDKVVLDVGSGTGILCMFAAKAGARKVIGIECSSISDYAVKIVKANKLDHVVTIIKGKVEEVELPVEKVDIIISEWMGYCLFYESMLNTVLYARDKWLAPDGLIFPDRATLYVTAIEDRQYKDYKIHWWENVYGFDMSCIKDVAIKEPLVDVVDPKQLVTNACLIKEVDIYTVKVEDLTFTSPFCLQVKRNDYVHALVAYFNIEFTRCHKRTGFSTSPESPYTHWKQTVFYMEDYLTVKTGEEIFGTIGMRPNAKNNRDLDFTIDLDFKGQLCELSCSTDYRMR

[2] = target: T1, Protein arginine N-methyltransferase 1; experiment: Displacement of [3H]SAM from PRMT1 (unknown origin) preincubated for 15 mins followed by [3H]SAM addition measured after 60 mins by radiometric/luminescence based assay
Target sequence in this assay (Q99873 whole entry): as the sequence (Q99873 whole entry, looked up) above

[3] = target: Protein arginine N-methyltransferase 5 (Homo sapiens) (UniProt O14744); experiment: Inhibition of PRMT5 (unknown origin) using SAM as substrate incubated for 60 mins by chemiluminescence based assay
Protein arginine N-methyltransferase 5 (Homo sapiens), sequence (O14744 whole entry): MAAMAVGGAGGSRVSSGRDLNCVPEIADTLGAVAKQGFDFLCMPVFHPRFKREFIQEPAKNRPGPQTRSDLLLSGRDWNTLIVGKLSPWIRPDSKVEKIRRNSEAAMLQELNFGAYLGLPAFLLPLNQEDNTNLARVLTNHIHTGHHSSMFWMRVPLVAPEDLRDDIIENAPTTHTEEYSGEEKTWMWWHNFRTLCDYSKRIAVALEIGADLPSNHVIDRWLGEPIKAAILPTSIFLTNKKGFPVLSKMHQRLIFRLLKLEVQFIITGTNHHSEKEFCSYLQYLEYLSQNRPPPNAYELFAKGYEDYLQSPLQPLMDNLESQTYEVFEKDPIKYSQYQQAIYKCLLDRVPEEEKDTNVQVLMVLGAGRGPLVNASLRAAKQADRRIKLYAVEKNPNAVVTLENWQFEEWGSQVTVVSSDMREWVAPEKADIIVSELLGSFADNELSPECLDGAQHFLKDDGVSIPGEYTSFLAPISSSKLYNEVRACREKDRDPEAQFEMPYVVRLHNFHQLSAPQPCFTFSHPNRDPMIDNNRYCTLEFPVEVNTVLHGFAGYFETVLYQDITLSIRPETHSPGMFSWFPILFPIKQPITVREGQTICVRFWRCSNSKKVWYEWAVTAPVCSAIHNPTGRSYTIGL

[4] = test system: A549; experiment: Antiproliferative activity against human A549 cells incubated for 48 hrs by CCK8 assay; type: functional, cell-based; conditions: A549, 48 h
[5] = test system: MDA-MB-231; experiment: Antiproliferative activity against human MDA-MB-231 cells incubated for 48 hrs by CCK8 assay; type: functional, cell-based; conditions: MDA-MB-231, 48 h
[6] = test system: HepG2; experiment: Antiproliferative activity against human HepG2 cells incubated for 48 hrs by CCK8 assay; type: functional, cell-based; conditions: HepG2, 48 h
[7] = test system: HeLa; experiment: Antiproliferative activity against human HeLa cells incubated for 48 hrs by CCK8 assay; type: functional, cell-based
[8] = test system: HeLa; experiment: Induction of early apoptosis in human HeLa cells assessed as nuclear edge fusion incubated for 24 hrs by hoechst staining based analysis; type: functional, cell-based; conditions: dose <= 32.0 µM
[9] = test system: HeLa; experiment: Induction of early apoptosis in human HeLa cells assessed as nuclear fragmentation incubated for 24 hrs by hoechst staining based analysis; type: functional, cell-based; conditions: dose <= 32.0 µM
[10] = test system: HeLa; experiment: Induction of early apoptosis in human HeLa cells assessed as dense nuclei incubated for 24 hrs by hoechst staining based analysis; type: functional, cell-based; conditions: dose <= 32.0 µM
[11] = test system: HeLa; experiment: Induction of early apoptosis in human HeLa cells assessed as reduction in number of cells incubated for 24 hrs by hoechst staining based analysis; type: functional, cell-based; conditions: dose <= 32.0 µM
[12] = test system: HeLa; experiment: Induction of apoptosis in human HeLa cells assessed as viable cells at 8 uM incubated for 24 hrs by flow cytometry (reference value: 66.3 %); type: functional; conditions: read-out: Activity
[13] = test system: HeLa; experiment: Induction of apoptosis in human HeLa cells assessed as early apoptotic cells at 8 uM incubated for 24 hrs by flow cytometry (reference value: 28.2 %); type: functional
[14] = test system: HeLa; experiment: Induction of apoptosis in human HeLa cells assessed as late apoptotic cells at 8 uM incubated for 24 hrs by flow cytometry (reference value: 4.37 %); type: functional
[15] = test system: HeLa; experiment: Induction of apoptosis in human HeLa cells assessed as necrotic cells at 8 uM incubated for 24 hrs by flow cytometry (reference value: 1.10 %); type: functional
[16] = test system: HeLa; experiment: Induction of apoptosis in human HeLa cells assessed as viable cells at 16 uM incubated for 24 hrs by flow cytometry (reference value: 66.3 %); type: functional; conditions: read-out: Activity
[17] = test system: HeLa; experiment: Induction of apoptosis in human HeLa cells assessed as early apoptotic cells at 16 uM incubated for 24 hrs by flow cytometry (reference value: 28.2 %); type: functional
[18] = test system: HeLa; experiment: Induction of apoptosis in human HeLa cells assessed as late apoptotic cells at 16 uM incubated for 24 hrs by flow cytometry (reference value: 4.37 %); type: functional
[19] = test system: HeLa; experiment: Induction of apoptosis in human HeLa cells assessed as necrotic cells at 16 uM incubated for 24 hrs by flow cytometry (reference value: 1.10 %); type: functional
[20] = test system: HeLa; experiment: Induction of apoptosis in human HeLa cells assessed as viable cells at 32 uM incubated for 24 hrs by flow cytometry (reference value: 66.3 %); type: functional; conditions: read-out: Activity
[21] = test system: HeLa; experiment: Induction of apoptosis in human HeLa cells assessed as early apoptotic cells at 32 uM incubated for 24 hrs by flow cytometry (reference value: 28.2 %); type: functional
[22] = test system: HeLa; experiment: Induction of apoptosis in human HeLa cells assessed as late apoptotic cells at 32 uM incubated for 24 hrs by flow cytometry (reference value: 4.37 %); type: functional
[23] = test system: HeLa; experiment: Induction of apoptosis in human HeLa cells assessed as necrotic cells at 32 uM incubated for 24 hrs by flow cytometry (reference value: 1.10 %); type: functional
[24] = test system: HeLa; experiment: Inhibition of cell migration in human HeLa cells incubated upto 48 hrs by scratch wound healing assay; type: functional, cell-based; conditions: dose 2-8 µM
[25] = test system: HeLa; experiment: Inhibition of cell migration in human HeLa cells incubated at 24 hrs by crystal violet staining based transwell assay; type: functional; conditions: dose 2-8 µM
[26] = test system: HeLa; experiment: Downregulation of ADMA expression in human HeLa cells incubated for 48 hrs by Western blot analysis; type: functional, cell-based; conditions: dose 2-8 µM
[27] = test system: HeLa; experiment: Effect on SDMA expression in human HeLa cells at 2 to 8 uM incubated for 48 hrs by Western blot analysis; type: functional, cell-based; conditions: dose 2-8 µM
[28] = test system: HeLa; experiment: Effect on PRMT1 expression in human HeLa cells at 2 to 8 uM incubated for 48 hrs by Western blot analysis; type: functional, cell-based; conditions: dose 2-8 µM
[29] = test system: HeLa; experiment: Downregulation of DDAH expression in human HeLa cells at 2 to 8 uM incubated for 48 hrs by Western blot analysis; type: functional, cell-based; conditions: dose 2-8 µM
[30] = test system: HeLa; experiment: Downregulation of N-Cadherin expression in human HeLa cells incubated for 48 hrs by Western blot analysis; type: functional, cell-based; conditions: dose 2-8 µM
[31] = test system: HeLa; experiment: Downregulation of MMP2 expression in human HeLa cells incubated for 48 hrs by Western blot analysis; type: functional, cell-based; conditions: dose 2-8 µM
[32] = test system: HeLa; experiment: Downregulation of pro-caspase 9 expression in human HeLa cells incubated for 48 hrs by Western blot analysis; type: functional, cell-based; conditions: dose 2-8 µM

SMILES: CNCCN(C)Cc1sc(-c2cccc(OC)c2)nc1-c1ccc(OC)cc1
- inhibition [1]: 43%

SMILES: CNCCN(C)Cc1sc(-c2ccc(OC(F)(F)F)cc2)nc1-c1ccc(OC)cc1
- inhibition [1]: 39%

SMILES: CNCCN(C)Cc1sc(-c2cccc(OC(F)(F)F)c2)nc1-c1cccc(OC)c1
- inhibition [1]: 31%

SMILES: CNCCNCc1sc(-c2ccc(OC)cc2)nc1-c1ccc(OC)cc1
- inhibition [1]: 7%

SMILES: N=C(N)c1ccc(-c2ccc(-c3ccc(C(=N)N)cc3)o2)cc1
- inhibition [1]: 98.1%

SMILES: CNCCN(C)Cc1sc(-c2ccc(OC(F)(F)F)cc2)nc1-c1cccc(OC)c1
- inhibition [1]: 35%

SMILES: CNCCN(C)Cc1sc(-c2ccc(N3CCOCC3)cc2)nc1-c1ccc(OC)cc1
- inhibition [1]: 56%
- IC50 [2]: 7.07 µM
- inhibition [3]: 6%
- IC50 [4]: 33.9 µM
- IC50 [5]: 31.4 µM
- IC50 [6]: 20 µM
- IC50 [7]: 19.4 µM

SMILES: CNCCN(C)Cc1sc(-c2cccc(OC(F)(F)F)c2)nc1-c1ccc(OC)cc1
- inhibition [1]: 21%

SMILES: CNCCN(C)Cc1sc(-c2ccc(OC)cc2)nc1-c1ccc(OC)cc1.Cl
- inhibition [1]: 60%
- IC50 [2]: 11.8 µM
- inhibition [3]: 2.52%
- IC50 [4]: 18.4 µM
- IC50 [5]: 16.9 µM
- IC50 [6]: 16 µM
- IC50 [7]: 9.43 µM
- Activity [8]: Dose-Dependent Effect
- Activity [9]: Dose-Dependent Effect
- Activity [10]: Dose-Dependent Effect
- Activity [11]: Dose-Dependent Effect
- viability at 8 µM [12]: 56.2%
- Activity [13]: 35.9%
- Activity [14]: 6.65%
- Activity [15]: 1.33%
- viability at 16 µM [16]: 29.3%
- Activity [17]: 51.9%
- Activity [18]: 17.5%
- Activity [19]: 1.33%
- viability at 32 µM [20]: 11.3%
- Activity [21]: 64.8%
- Activity [22]: 22.9%
- Activity [23]: 0.97%
- inhibition [24]: Dose-Dependent Effect
- inhibition [25]: Dose-Dependent Effect
- Activity [26]: Dose-Dependent Effect
- Activity [27]: inactive
- Activity [28]: inactive
- Activity [29]: Active
- Activity [30]: Dose-Dependent Effect
- Activity [31]: Dose-Dependent Effect
- Activity [32]: Active

SMILES: CNCCN(C)Cc1sc(-c2cccc(N3CCOCC3)c2)nc1-c1ccc(OC)cc1
- inhibition [1]: 30%
